According to PubChem BioAssay (NCI):
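Test compounds were applied to cells in 96-well plates for 48 hours at 5 doses. TGI marks complete inhibition of growth.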

Experiments:
Test in all cases: inhibition of tumour cell growth, NCI panel, 48 h
CAKI-1 renal = tested on: CAKI-1 renal
HCC-2998 colon = tested on: HCC-2998 colon
HL-60(TB) leukemia = tested on: HL-60(TB) leukemia
HOP-62 NSCLC = tested on: HOP-62 NSCLC
HT29 colon = tested on: HT29 colon
KM12 colon = tested on: KM12 colon
NCI-H23 lung = tested on: NCI-H23 lung
NCI-H460 lung = tested on: NCI-H460 lung
OVCAR-5 ovarian = tested on: OVCAR-5 ovarian
UO-31 renal = tested on: UO-31 renal

For `[N-]=[N+]=NCC(O)Cn1cnc2c(NC(=O)c3ccccc3)ncnc21` (stereo not given), the TGI (CAKI-1 renal) was > 100 µM, the TGI (HCC-2998 colon) was > 100 µM and the TGI (HL-60(TB) leukemia) was > 100 µM. The TGI (HOP-62 NSCLC) was > 100 µM, the TGI (HT29 colon) was > 100 µM and the TGI (KM12 colon) was > 100 µM. For the same molecule, the TGI (NCI-H23 lung) was > 100 µM, the TGI (NCI-H460 lung) was > 100 µM and the TGI (OVCAR-5 ovarian) was > 100 µM. The TGI (UO-31 renal) was > 100 µM.
With `Cc1ccc(S(=O)(=O)NC(=O)C2=C3SCCN3C(=O)N(S(=O)(=O)c3ccc(C)cc3)C2c2ccccc2)cc1` (stereo not given) the TGI (CAKI-1 renal) was > 100 µM, the TGI (HCC-2998 colon) was 48 µM and the TGI (HL-60(TB) leukemia) was > 100 µM. For the same molecule, the TGI (HOP-62 NSCLC) was > 100 µM, the TGI (HT29 colon) was > 100 µM and the TGI (KM12 colon) was 71.6 µM. For the same molecule, the TGI (NCI-H23 lung) was > 100 µM, the TGI (NCI-H460 lung) was > 100 µM and the TGI (OVCAR-5 ovarian) was > 100 µM. For the same molecule, the TGI (UO-31 renal) was > 100 µM.
With `CC(=O)OC[C@H]1On2nnnc2[C@H](OC(C)=O)[C@@H](OC(C)=O)[C@@H]1OC(C)=O` the TGI (CAKI-1 renal) was > 100 µM, the TGI (HCC-2998 colon) was > 100 µM and the TGI (HL-60(TB) leukemia) was > 100 µM. For the same molecule, the TGI (HOP-62 NSCLC) was > 100 µM, the TGI (HT29 colon) was > 100 µM and the TGI (KM12 colon) was > 100 µM. For the same molecule, the TGI (NCI-H23 lung) was > 100 µM, the TGI (NCI-H460 lung) was > 100 µM and the TGI (OVCAR-5 ovarian) was > 100 µM. For the same molecule, the TGI (UO-31 renal) was > 100 µM.
`CCN(CC)C(=O)CCN1CC1` was tested, and the TGI (CAKI-1 renal) was > 10 µM, the TGI (HCC-2998 colon) was > 10 µM and the TGI (HL-60(TB) leukemia) was > 10 µM. For the same molecule, the TGI (HOP-62 NSCLC) was > 10 µM, the TGI (HT29 colon) was > 10 µM and the TGI (KM12 colon) was > 10 µM. For the same molecule, the TGI (NCI-H23 lung) was > 10 µM, the TGI (NCI-H460 lung) was > 10 µM and the TGI (OVCAR-5 ovarian) was > 10 µM. The TGI (UO-31 renal) was > 10 µM.
With `CC(C)Oc1cccc(N2C(Nc3ccccc3)=Nc3ccncc3S2(=O)=O)c1` the TGI (CAKI-1 renal) was > 100 µM, the TGI (HCC-2998 colon) was 71.5 µM and the TGI (HL-60(TB) leukemia) was 6.01 µM. The TGI (HOP-62 NSCLC) was > 100 µM, the TGI (HT29 colon) was > 100 µM and the TGI (KM12 colon) was 65.8 µM. For the same molecule, the TGI (NCI-H23 lung) was > 100 µM, the TGI (NCI-H460 lung) was > 100 µM and the TGI (OVCAR-5 ovarian) was > 100 µM. For the same molecule, the TGI (UO-31 renal) was > 100 µM.
`COc1cccc(C2c3cc4c(cc3OC(Nc3ccccc3)C2C)OCO4)c1O` (stereo not given) was tested, and the TGI (CAKI-1 renal) was 49.1 µM, the TGI (HCC-2998 colon) was 36.3 µM and the TGI (HL-60(TB) leukemia) was > 23.9 µM. The TGI (HOP-62 NSCLC) was 36.9 µM, the TGI (HT29 colon) was 37.7 µM and the TGI (KM12 colon) was 24.8 µM. The TGI (NCI-H23 lung) was 45.2 µM, the TGI (NCI-H460 lung) was 26.4 µM and the TGI (OVCAR-5 ovarian) was > 93.8 µM. The TGI (UO-31 renal) was 32.4 µM.
`N#Cc1c(N)nc2c3c1NC(=O)C(C(N)=O)C3c1ccccc1O2` (stereo not given) was tested, and the TGI (CAKI-1 renal) was > 100 µM, the TGI (HCC-2998 colon) was > 100 µM and the TGI (HL-60(TB) leukemia) was > 100 µM. For the same molecule, the TGI (HOP-62 NSCLC) was > 100 µM, the TGI (HT29 colon) was > 100 µM and the TGI (KM12 colon) was > 100 µM. The TGI (NCI-H23 lung) was > 100 µM, the TGI (NCI-H460 lung) was > 100 µM and the TGI (OVCAR-5 ovarian) was > 100 µM. For the same molecule, the TGI (UO-31 renal) was > 100 µM.
For `CC(CNC(N)=O)NC(N)=O` (stereo not given), the TGI (CAKI-1 renal) was > 100 µM, the TGI (HCC-2998 colon) was > 100 µM and the TGI (HL-60(TB) leukemia) was > 100 µM. The TGI (HOP-62 NSCLC) was > 100 µM, the TGI (HT29 colon) was > 100 µM and the TGI (KM12 colon) was > 100 µM. The TGI (NCI-H23 lung) was > 100 µM, the TGI (NCI-H460 lung) was > 100 µM and the TGI (OVCAR-5 ovarian) was > 100 µM. For the same molecule, the TGI (UO-31 renal) was > 100 µM.
For `NC(N)=NC1C(O)C(O)C(O)C(N=C(N)N)C1O` (stereo not given), the TGI (CAKI-1 renal) was > 100 µM, the TGI (HCC-2998 colon) was > 100 µM and the TGI (HL-60(TB) leukemia) was > 100 µM. The TGI (HOP-62 NSCLC) was > 100 µM, the TGI (HT29 colon) was > 100 µM and the TGI (KM12 colon) was > 100 µM. For the same molecule, the TGI (NCI-H23 lung) was > 100 µM, the TGI (NCI-H460 lung) was > 100 µM and the TGI (OVCAR-5 ovarian) was > 100 µM. For the same molecule, the TGI (UO-31 renal) was > 100 µM.
`COc1ccccc1NC(=O)CC(=O)NN` was tested, and the TGI (CAKI-1 renal) was > 100 µM, the TGI (HCC-2998 colon) was > 100 µM and the TGI (HL-60(TB) leukemia) was > 100 µM. For the same molecule, the TGI (HOP-62 NSCLC) was > 100 µM, the TGI (HT29 colon) was > 100 µM and the TGI (KM12 colon) was > 100 µM. The TGI (NCI-H23 lung) was > 100 µM, the TGI (NCI-H460 lung) was > 100 µM and the TGI (OVCAR-5 ovarian) was > 100 µM. The TGI (UO-31 renal) was > 100 µM.
For `CCOC(=O)c1cc(Br)c(-c2onc(C)c2Br)[nH]1`, the TGI (CAKI-1 renal) was > 100 µM, the TGI (HCC-2998 colon) was > 100 µM and the TGI (HL-60(TB) leukemia) was > 100 µM. For the same molecule, the TGI (HOP-62 NSCLC) was 49.9 µM, the TGI (HT29 colon) was > 100 µM and the TGI (KM12 colon) was > 100 µM. The TGI (NCI-H23 lung) was > 100 µM, the TGI (NCI-H460 lung) was > 100 µM and the TGI (OVCAR-5 ovarian) was > 100 µM. For the same molecule, the TGI (UO-31 renal) was > 100 µM.
`CCCCCCCCOc1ccc(/C=C/C2=[N+](CCO)CCO2)cc1` gave a TGI (CAKI-1 renal) of 19.7 µM, a TGI (HCC-2998 colon) of 11.9 µM and a TGI (HL-60(TB) leukemia) of 4.74 µM. It also gave a TGI (HOP-62 NSCLC) of 39.8 µM, a TGI (HT29 colon) of 8.26 µM and a TGI (KM12 colon) of 11 µM. The TGI (NCI-H23 lung) was 5.28 µM, the TGI (NCI-H460 lung) was 10.5 µM and the TGI (OVCAR-5 ovarian) was 26.4 µM. It also gave a TGI (UO-31 renal) of 25.1 µM.
With `C[C@H](C1CC2(C)OC2(C)C(=O)O1)[C@H]1CC[C@H]2[C@@H]3[C@@H]4O[C@@H]4[C@@]4(O)CC=CC(=O)[C@]4(C)[C@H]3CC[C@]12C` (stereo not given in full) the TGI (CAKI-1 renal) was > 50 µM, the TGI (HCC-2998 colon) was > 50 µM and the TGI (HL-60(TB) leukemia) was > 50 µM. For the same molecule, the TGI (HOP-62 NSCLC) was > 50 µM, the TGI (HT29 colon) was > 50 µM and the TGI (KM12 colon) was > 50 µM. For the same molecule, the TGI (NCI-H23 lung) was > 50 µM, the TGI (NCI-H460 lung) was > 50 µM and the TGI (OVCAR-5 ovarian) was > 50 µM. The TGI (UO-31 renal) was > 50 µM.
For `CC1(C)O[C@@H](C[C@]2(C#N)C[C@H](CCl)OC(C)(C)O2)C[C@@H](C#N)O1`, the TGI (CAKI-1 renal) was > 100 µM, the TGI (HCC-2998 colon) was > 100 µM and the TGI (HL-60(TB) leukemia) was > 100 µM. The TGI (HOP-62 NSCLC) was > 100 µM, the TGI (HT29 colon) was > 100 µM and the TGI (KM12 colon) was > 100 µM. The TGI (NCI-H23 lung) was > 100 µM, the TGI (NCI-H460 lung) was > 100 µM and the TGI (OVCAR-5 ovarian) was > 100 µM. The TGI (UO-31 renal) was > 100 µM.
With `O=c1[nH]nc(Cc2ccc(Cl)cc2)n1/N=C/c1ccc([N+](=O)[O-])o1` the TGI (CAKI-1 renal) was > 39 µM, the TGI (HCC-2998 colon) was 4.82 µM and the TGI (HL-60(TB) leukemia) was > 26.1 µM. The TGI (HOP-62 NSCLC) was 24.8 µM, the TGI (HT29 colon) was > 41.1 µM and the TGI (KM12 colon) was 6.59 µM. For the same molecule, the TGI (NCI-H23 lung) was 16.8 µM, the TGI (NCI-H460 lung) was > 36.2 µM and the TGI (OVCAR-5 ovarian) was > 54.6 µM. For the same molecule, the TGI (UO-31 renal) was > 24 µM.
`CC(=O)OCC1OC(n2c(C)c(C)c(C)c(C#N)c2=S)C(OC(C)=O)C(OC(C)=O)C1OC(C)=O` (stereo not given) was tested, and the TGI (CAKI-1 renal) was > 100 µM, the TGI (HCC-2998 colon) was > 100 µM and the TGI (HL-60(TB) leukemia) was > 100 µM. The TGI (HOP-62 NSCLC) was 49.8 µM, the TGI (HT29 colon) was > 100 µM and the TGI (KM12 colon) was > 100 µM. For the same molecule, the TGI (NCI-H23 lung) was > 100 µM, the TGI (NCI-H460 lung) was > 100 µM and the TGI (OVCAR-5 ovarian) was > 100 µM. It also gave a TGI (UO-31 renal) of 59.7 µM.
